Values after ≈ are worked out from the molar mass of the structure shown.
Legend:
[1] = tested on: S. aureus ATCC 106414 (VISA); test: MIC, microdilution method (9.1); type: cell-based, Staphylococcus aureus; conditions: Staphylococcus aureus, read after 18 h, read-out: MIC
Protocol: (§1) The microdilution method recommended by the Clinical and Laboratory Standard Institute [M07-A8, Vol. 29, No. 2] was used. The activity of indolic compounds was tested against 29 bacterial strains belonging to 17 different species and 12 different genera (Staphylococcus, Streptococcus, Enterococcus, Listeria, Bacillus, Haemophilus, Escherichia, Klebsiella, Enterobacter, Serratia, Pseudomonas, and Acinetobacter). Bacterial inocula were prepared in Mueller Hinton broth (MH2, bioMérieux, Marcy L'Etoile, France), supplemented with 10% sheep blood for fastidious species (i.e., Streptococcus pneumoniae and Haemophilus influenzae). They were dispensed in 96 well microtiter plates (5×10^5 CFU/ml of final inoculum). Indolic compounds were added to the wells as to obtain two-fold serial concentrations (0.50-128 mg/L of final concentrations). Plates were incubated at 37° C. in ambient air, or at 37° C. in 5% CO2 enriched atmosphere for fastidious species. […] Drug-free cultures served as growth controls. Cultures receiving gentamicin, ciprofloxacin or cefotaxime served as positive controls.

[2] = tested on: S. aureus ATCC 25923; test: MIC, microdilution method (9.1); type: cell-based, Staphylococcus aureus; conditions: Staphylococcus aureus, ATCC25923, read after 18 h, read-out: MIC
Protocol: as §1

[3] = tested on: S. aureus ATCC 29213; test: MIC, microdilution method (9.1); type: cell-based, Staphylococcus aureus; conditions: Staphylococcus aureus, ATCC29213, read after 18 h, read-out: MIC
Protocol: as §1

[4] = tested on: S. aureus ATCC 33592 (MRSA); test: MIC, microdilution method (9.1); type: cell-based, Staphylococcus aureus; conditions: Staphylococcus aureus, read after 18 h, read-out: MIC
Protocol: as §1

[5] = tested on: S. aureus ATCC 6538; test: MIC, microdilution method (9.1); type: cell-based, Staphylococcus aureus; conditions: Staphylococcus aureus, ATCC6538, read after 18 h, read-out: MIC
Protocol: as §1

[6] = tested on: S. aureus ATCC 9144; test: MIC, microdilution method (9.1); type: cell-based, Staphylococcus aureus; conditions: Staphylococcus aureus, ATCC9144, read after 18 h, read-out: MIC
Protocol: as §1

[7] = tested on: S. aureus CIP 103428; test: MIC, microdilution method (9.1); type: cell-based, Staphylococcus aureus; conditions: Staphylococcus aureus, CIP103428, read after 18 h, read-out: MIC
Protocol: as §1

[8] = tested on: S. aureus CIP 65.25 (MRSA); test: MIC, microdilution method (9.1); type: cell-based, Staphylococcus aureus; conditions: Staphylococcus aureus, read after 18 h, read-out: MIC
Protocol: as §1

[9] = tested on: S. aureus CIP 65.6; test: MIC, microdilution method (9.1); type: cell-based, Staphylococcus aureus; conditions: Staphylococcus aureus, CIP65, read after 18 h, read-out: MIC
Protocol: as §1

[10] = tested on: S. aureus SA-1199B; test: MIC, microdilution method (9.1); type: cell-based, Staphylococcus aureus; conditions: Staphylococcus aureus, SA1199B, 18 h
Protocol: as §1

[11] = tested on: S. epidermidis ATCC 12228; test: MIC, microdilution method (9.1); type: cell-based, Staphylococcus epidermidis; conditions: Staphylococcus epidermidis, ATCC12228, read after 18 h, read-out: MIC
Protocol: as §1

[12] = tested on: S. epidermidis CIP 103627; test: MIC, microdilution method (9.1); type: cell-based, Staphylococcus epidermidis; conditions: Staphylococcus epidermidis, CIP103627, read after 18 h, read-out: MIC
Protocol: as §1

[13] = tested on: S. epidermidis CIP 81.55; test: MIC, microdilution method (9.1); type: cell-based, Staphylococcus epidermidis; conditions: Staphylococcus epidermidis, CIP81, read after 18 h, read-out: MIC
Protocol: as §1

[14] = tested on: S. pneumoniae ATCC 6303; test: MIC, microdilution method (9.1); type: cell-based, Streptococcus pneumoniae; conditions: Streptococcus pneumoniae, ATCC6303, 10% sheep blood, 5% CO2, 18 h, read-out: MIC
Protocol: as §1

[15] = tested on: S. agalactiae (group B) ATCC 12400; test: MIC, microdilution method (9.1); type: cell-based, Streptococcus agalactiae; conditions: Streptococcus agalactiae, ATCC12400, 18 h, read-out: MIC
Protocol: as §1

[16] = tested on: S. pyogenes (group A) CIP 104226; test: MIC, microdilution method (9.1); type: cell-based, Streptococcus pyogenes; conditions: Streptococcus pyogenes, CIP104226, 18 h, read-out: MIC
Protocol: as §1

[17] = tested on: S. mitis CIP 103335; test: MIC, microdilution method (9.1); type: cell-based, Streptococcus mitis; conditions: Streptococcus mitis, CIP103335, 18 h, read-out: MIC
Protocol: as §1

[18] = tested on: E. faecium CIP 54.32; test: MIC, microdilution method (9.1); type: cell-based, Enterococcus faecium; conditions: Enterococcus faecium, CIP54, 18 h, read-out: MIC
Protocol: as §1

[19] = tested on: E. faecalis ATCC 29212; test: MIC, microdilution method (9.1); type: cell-based, Enterococcus faecalis; conditions: Enterococcus faecalis, ATCC29212, 18 h, read-out: MIC
Protocol: as §1

[20] = tested on: Acinetobacter baumanii ATCC 19606; test: MIC, microdilution method (9.1); type: cell-based; conditions: Acinetobacter baumannii, ATCC19606, 18 h, read-out: MIC
Protocol: as §1

[21] = tested on: Bacillus subtilis CIP 5262; test: MIC, microdilution method (9.1); type: cell-based; conditions: CIP5262, 18 h, read-out: MIC
Protocol: as §1

[22] = tested on: Enterobacter cloacae ATCC13047; test: MIC, microdilution method (9.1); type: cell-based; conditions: 18 h
Protocol: as §1

[23] = tested on: Escherichia coli ATCC 25922; test: MIC, microdilution method (9.1); type: cell-based; conditions: ATCC25922, 18 h
Protocol: as §1

[24] = tested on: Haemophilus influenzae ATCC 49766; test: MIC, microdilution method (9.1); type: cell-based; conditions: ATCC49766; Haemophilus influenzae ATCC 49766; 10% sheep blood, 5% CO2; 18 h; read-out: MIC
Protocol: as §1

[25] = tested on: Klebsiella pneumoniae API ATCC 35657; test: MIC, microdilution method (9.1); type: cell-based; conditions: ATCC35657, 18 h, read-out: MIC
Protocol: as §1

[26] = tested on: Listeria innocua CIP 80.11; test: MIC, microdilution method (9.1); type: cell-based; conditions: CIP80, 18 h, read-out: MIC
Protocol: as §1

[27] = tested on: Pseudomonas aeruginosa CIP 5933; test: MIC, microdilution method (9.1); type: cell-based; conditions: CIP5933, 18 h, read-out: MIC
Protocol: as §1

[28] = tested on: S. pneumoniae ATCC 49619; test: MIC, microdilution method (9.1); type: cell-based; conditions: Streptococcus pneumoniae, ATCC49619, 10% sheep blood, 5% CO2, 18 h
Protocol: as §1

[29] = tested on: Serratia marcescens CIP 103551; test: MIC, microdilution method (9.1); type: cell-based; conditions: CIP103551, 18 h
Protocol: as §1

[30] = tested on: HCT116 (human colon tumor); test: In vitro cytotoxicity; type: cell-based; conditions: read-out: % of cellular growth inhibition; for inhibition at 10 µM: HCT-116, 10^−5 M; for inhibition at 1 µM: HCT-116, 10^−6 M
Protocol: (§2) In vitro cytotoxicity was assayed on three cell lines—KB (human mouth carcinoma), MCR5 (human lung fibroblast) and HCT116 (human colon tumor). Results are presented in table IV as % of cellular growth inhibition in presence of 10^−5 M and 10^−6 M of the tested bis-indolic derivatives.

[31] = tested on: KB (human mouth carcinoma); test: In vitro cytotoxicity; type: cell-based; conditions: read-out: % of cellular growth inhibition; for inhibition at 10 µM: 10^−5 M; for inhibition at 1 µM: 10^−6 M
Protocol: as §2

[32] = tested on: MRC5 (human lung fibroblast); test: In vitro cytotoxicity; type: cell-based; conditions: read-out: % of cellular growth inhibition; for inhibition at 10 µM: 10^−5 M; for inhibition at 1 µM: 10^−6 M
Protocol: as §2

[33] = tested on: HCT116 (human colon tumor); test: In vitro cytotoxicity; type: cell-based; conditions: HCT-116, HCT116, from 100 μM to 0.005 μM in DMSO, duplicate

Row | SMILES | MIC [1] [µg/mL] | MIC [2] [µg/mL] | MIC [3] [µg/mL] | MIC [4] [µg/mL] | MIC [5] [µg/mL] | MIC [6] [µg/mL] | MIC [7] [µg/mL] | MIC [8] [µg/mL] | MIC [9] [µg/mL] | MIC [10] [µg/mL] | MIC [11] [µg/mL] | MIC [12] [µg/mL] | MIC [13] [µg/mL] | MIC [14] [µg/mL] | MIC [15] [µg/mL] | MIC [16] [µg/mL] | MIC [17] [µg/mL] | MIC [18] [µg/mL] | MIC [19] [µg/mL] | MIC [20] [µg/mL] | other results
1 | CC(C)(C)OC(=O)NCC(NC(=O)c1c[nH]c2ccc(Br)cc12)c1c[nH]c2ccccc12 (stereo not drawn) [Compound 3c, tert-Butyl [2-(1H-indol-3-yl)-2-(5-bromo-1H-indol-3-yl-carboxamido)ethyl]carbamate] | 8 (≈ 16.1 µM) | 8 (≈ 16.1 µM) | 8 (≈ 16.1 µM) | 8 (≈ 16.1 µM) | 8 (≈ 16.1 µM) | 8 (≈ 16.1 µM) | 8 (≈ 16.1 µM) | 8 (≈ 16.1 µM) | 8 (≈ 16.1 µM) | 8 (≈ 16.1 µM) | 8 (≈ 16.1 µM) | 8 (≈ 16.1 µM) | 8 (≈ 16.1 µM) | 32 (≈ 64.3 µM) | 64 (≈ 129 µM) | 64 (≈ 129 µM) | 64 (≈ 129 µM) | > 128 | > 128 | > 128 | MIC [21]: 64 µg/mL (≈ 129 µM); MIC [22]: > 128 µg/mL; MIC [23]: > 128 µg/mL; MIC [24]: > 128 µg/mL; MIC [25]: > 128 µg/mL; MIC [26]: > 128 µg/mL; MIC [27]: > 128 µg/mL; MIC [28]: 32 µg/mL (≈ 64.3 µM); MIC [29]: > 128 µg/mL; inhibition at 10 µM [30]: 42 ± 3%; inhibition at 1 µM [30]: 11%; inhibition at 10 µM [31]: 46 ± 8%; inhibition at 1 µM [31]: 0%; inhibition at 10 µM [32]: 16 ± 9%; inhibition at 1 µM [32]: 0%; IC50 ([33]; first value): 8.02 µM; IC50 ([33]; second value): 5.43 µM
2 | CC(C)(C)OC(=O)NCC(NC(=O)c1c[nH]c2cc(Cl)ccc12)c1c[nH]c2ccc(Cl)cc12 (stereo not drawn) [Compound 6b, tert-Butyl 2-(5-chloro-1H-indol-3-yl)-2-(6-chloro-1H-indole-3-carboxamido)ethyl carbamate] | 4 (≈ 8.21 µM) | 4 (≈ 8.21 µM) | 4 (≈ 8.21 µM) | 4 (≈ 8.21 µM) | 4 (≈ 8.21 µM) | 4 (≈ 8.21 µM) | 4 (≈ 8.21 µM) | 4 (≈ 8.21 µM) | 4 (≈ 8.21 µM) | 4 (≈ 8.21 µM) | 4 (≈ 8.21 µM) | 8 (≈ 16.4 µM) | 4 (≈ 8.21 µM) | 64 (≈ 131 µM) | 128 (≈ 263 µM) | 128 (≈ 263 µM) | 128 (≈ 263 µM) | > 128 | > 128 | > 128 | MIC [21]: 64 µg/mL (≈ 131 µM); MIC [22]: > 128 µg/mL; MIC [23]: > 128 µg/mL; MIC [24]: > 128 µg/mL; MIC [25]: > 128 µg/mL; MIC [26]: > 128 µg/mL; MIC [27]: > 128 µg/mL; MIC [28]: 64 µg/mL (≈ 131 µM); MIC [29]: > 128 µg/mL; inhibition at 10 µM [30]: 97 ± 6%; inhibition at 1 µM [30]: 0%; inhibition at 10 µM [31]: 92 ± 4%; inhibition at 1 µM [31]: 2%; inhibition at 10 µM [32]: 99 ± 1%; inhibition at 1 µM [32]: 0%
